Measurements reported in patent US20230266302A1, “SYNTHESIS AND USE OF N-BENZYL SULFONAMIDES” (THE UNIVERSITY OF TULSA, priority 2020, published 2023).

Tests used:
Experiment in all cases: ATP level assay (CellTiter-Glo), percent of control
Format in all cases: cell-based
SkBr3 (breast cancer) = details: two hour incubation; for activity at 100 µM: Homo sapiens, SK-BR-3, 2 h, compound alone, control DMSO, read-out: POC (percent of control) SkBr3
HDF (normal cells) = details: two hour incubation; for activity at 100 µM: 2 h, compound alone, control DMSO, read-out: POC (percent of control) HDF
[1] = system: BxPC3 (pancreatic cancer); details: two hour incubation; for activity at 100 µM: Homo sapiens, BXPC-3, 2 h, compound alone, control DMSO, read-out: POC (percent of control) BxPC3
NCI-H196 (lung cancer) = details: two hour incubation; for activity at 100 µM: NCI-H196, 2 h, compound alone, control DMSO, read-out: POC (percent of control) NCI-H196
T47D (breast cancer) = details: two hour incubation; for activity at 100 µM: Homo sapiens, T47D, 2 h, compound alone, control DMSO, read-out: POC (percent of control) T47D
HeLa (cervical cancer) = details: two hour incubation; for activity at 100 µM: Homo sapiens, HeLa, 2 h, compound alone, control DMSO, read-out: POC (percent of control) HeLa
MCF7 (breast cancer) = details: two hour incubation; for activity at 100 µM: Homo sapiens, MCF7, 2 h, compound alone, control DMSO, read-out: POC (percent of control) MCF7
H293 (kidney cancer) = details: two hour incubation; for activity at 100 µM: 2 h, compound alone, control DMSO, read-out: POC (percent of control) H293
PC3 (prostate cancer) = details: two hour incubation; for activity at 100 µM: 2 h, compound alone, control DMSO, read-out: POC (percent of control) PC3
[2] = system: MCF10A (non-cancerous breast); details: two hour incubation; for activity at 100 µM: Homo sapiens, MCF-10A, 2 h, compound alone, control DMSO, read-out: POC (percent of control) MCF10A
MDA-MB (breast cancer) = details: two hour incubation; for activity at 100 µM: 2 h, compound alone, control DMSO, read-out: POC (percent of control) MDA-MB
[3] = compound 100 uM + 2DG (about 10-20 mM)
[4] = compound 100 uM + rotenone (approximately 1.25 μM)

SMILES	activity at 100 µM (SkBr3 (breast cancer)) [%]	POC (percent of control) SkBr3 (SkBr3 (breast cancer); [3])	POC (percent of control) SkBr3 (SkBr3 (breast cancer); [4])	activity at 100 µM (HDF (normal cells)) [%]	POC (percent of control) HDF (HDF (normal cells); [3])	POC (percent of control) HDF (HDF (normal cells); [4])	activity at 100 µM [1] [%]	POC (percent of control) BxPC3 [1, 3]	POC (percent of control) BxPC3 [1, 4]	activity at 100 µM (NCI-H196 (lung cancer)) [%]	POC (percent of control) NCI-H196 (NCI-H196 (lung cancer); [3])	POC (percent of control) NCI-H196 (NCI-H196 (lung cancer); [4])	activity at 100 µM (T47D (breast cancer)) [%]	POC (percent of control) T47D (T47D (breast cancer); [3])	POC (percent of control) T47D (T47D (breast cancer); [4])	activity at 100 µM (HeLa (cervical cancer)) [%]	POC (percent of control) HeLa (HeLa (cervical cancer); [3])	POC (percent of control) HeLa (HeLa (cervical cancer); [4])	activity at 100 µM (MCF7 (breast cancer)) [%]	POC (percent of control) MCF7 (MCF7 (breast cancer); [3])	further results
Cc1ccc(S(=O)(=O)NCc2cnccn2)cc1 [Compound 16, 4-methyl-N-(pyrazin-2-ylmethyl)benzenesulfonamide]	91.9	81.4% of control	104% of control	94.3	95.6% of control	98.3% of control	103	95.4% of control	72.7% of control	110	99.2% of control	97.6% of control	91.1	111.6% of control	99.3% of control	96.8	106.8% of control	102.3% of control	123	93.3% of control	POC (percent of control) MCF7 (MCF7 (breast cancer); [4]): 107.5% of control; activity at 100 µM (H293 (kidney cancer)): 80.1%; POC (percent of control) H293 (H293 (kidney cancer); [3]): 80.7% of control; POC (percent of control) H293 (H293 (kidney cancer); [4]): 81.6% of control; activity at 100 µM (PC3 (prostate cancer)): 109%; POC (percent of control) PC3 (PC3 (prostate cancer); [3]): 113.1% of control; POC (percent of control) PC3 (PC3 (prostate cancer); [4]): 95.1% of control; activity at 100 µM [2]: 113%; POC (percent of control) MCF10A [2, 3]: 118.9% of control; POC (percent of control) MCF10A [2, 4]: 86.2% of control; activity at 100 µM (MDA-MB (breast cancer)): 106%; POC (percent of control) MDA-MB (MDA-MB (breast cancer); [3]): 104.5% of control; POC (percent of control) MDA-MB (MDA-MB (breast cancer); [4]): 92.7% of control
O=S(=O)(NCc1ccco1)c1ccc(Cl)cc1 [Compound 20, 4-chloro-N-(furan-2-ylmethyl)benzenesulfonamide]	104	96.7% of control	102.5% of control	90.9	88.1% of control	103.1% of control	95.8	86.4% of control	94.8% of control	100	90.6% of control	102.1% of control	73.9	69.7% of control	101.6% of control	103	91.7% of control	117.2% of control	138	87.3% of control	POC (percent of control) MCF7 (MCF7 (breast cancer); [4]): 124.6% of control; activity at 100 µM (H293 (kidney cancer)): 104%; POC (percent of control) H293 (H293 (kidney cancer); [3]): 84.4% of control; POC (percent of control) H293 (H293 (kidney cancer); [4]): 69.4% of control; activity at 100 µM (PC3 (prostate cancer)): 91.1%; POC (percent of control) PC3 (PC3 (prostate cancer); [3]): 83.8% of control; POC (percent of control) PC3 (PC3 (prostate cancer); [4]): 100.4% of control; activity at 100 µM [2]: 102%; POC (percent of control) MCF10A [2, 3]: 78.1% of control; POC (percent of control) MCF10A [2, 4]: 102.9% of control; activity at 100 µM (MDA-MB (breast cancer)): 97.4%; POC (percent of control) MDA-MB (MDA-MB (breast cancer); [3]): 82.9% of control; POC (percent of control) MDA-MB (MDA-MB (breast cancer); [4]): 98.5% of control
O=S(=O)(NCc1c[nH]c2ccccc12)c1ccc(C(F)(F)F)cc1 [Compound 24, N-(1H-indol-3-ylmethyl)-4-(trifluoromethyl)benzenesulfonamide]	93.4	66.5% of control	67.2% of control	57.2	65.6% of control	95.7% of control	59	43.1% of control	38.6% of control	172	54.6% of control	73.3% of control	70.6	49.7% of control	65.5% of control	78.9	80.4% of control	96.1% of control	82.9	55.7% of control	POC (percent of control) MCF7 (MCF7 (breast cancer); [4]): 66.5% of control; activity at 100 µM (H293 (kidney cancer)): 62.6%; POC (percent of control) H293 (H293 (kidney cancer); [3]): 42.1% of control; POC (percent of control) H293 (H293 (kidney cancer); [4]): 47.6% of control; activity at 100 µM (PC3 (prostate cancer)): 54.6%; POC (percent of control) PC3 (PC3 (prostate cancer); [3]): 52.5% of control; POC (percent of control) PC3 (PC3 (prostate cancer); [4]): 47.5% of control; activity at 100 µM [2]: 85.1%; POC (percent of control) MCF10A [2, 3]: 56.8% of control; POC (percent of control) MCF10A [2, 4]: 59.1% of control; activity at 100 µM (MDA-MB (breast cancer)): 96.4%; POC (percent of control) MDA-MB (MDA-MB (breast cancer); [3]): 41.5% of control; POC (percent of control) MDA-MB (MDA-MB (breast cancer); [4]): 49.7% of control
Cc1ccc(S(=O)(=O)NCc2ccc3c(cnn3C)c2)cc1 [Compound 9, 4-methyl-N-[(1-methyl-1H-indazol-5-yl)methyl]benzenesulfonamide]	74.1	89.9% of control	115.5% of control	86.4	88.5% of control	107.6% of control	114	57.6% of control	118.5% of control	93.1	86.1% of control	117.7% of control	50.3	58.9% of control	103.5% of control	97.3	80.5% of control	89.8% of control	117	75.8% of control	POC (percent of control) MCF7 (MCF7 (breast cancer); [4]): 95.1% of control; activity at 100 µM (H293 (kidney cancer)): 83.3%; POC (percent of control) H293 (H293 (kidney cancer); [3]): 76.6% of control; POC (percent of control) H293 (H293 (kidney cancer); [4]): 88.5% of control; activity at 100 µM (PC3 (prostate cancer)): 90.4%; POC (percent of control) PC3 (PC3 (prostate cancer); [3]): 89.3% of control; POC (percent of control) PC3 (PC3 (prostate cancer); [4]): 101.7% of control; activity at 100 µM [2]: 89.6%; POC (percent of control) MCF10A [2, 3]: 88.3% of control; POC (percent of control) MCF10A [2, 4]: 123.7% of control; activity at 100 µM (MDA-MB (breast cancer)): 95.6%; POC (percent of control) MDA-MB (MDA-MB (breast cancer); [3]): 91.7% of control; POC (percent of control) MDA-MB (MDA-MB (breast cancer); [4]): 114% of control
